Reference: patent US20220401514A1, “ANTIMICROBIAL, BACTERIOPHAGE-DERIVED POLYPEPTIDES AND THEIR USE AGAINST GRAM-NEGATIVE AND ACID-FAST BACTERIA” (CONTRAFECT CORPORATION, priority 2019, published 2022)

Assays:
[1] = Stability assessment in 100% CAA; type: in vitro ADME; parameters: unit not given beside the values
Protocol: Stability was assessed after incubation in 100% human serum at 37° C. after 10 minutes, 1 hour, and 2 hours.
Stability assessment was further conducted in 100% CAA and rabbit serum using the same methodology discussed above.

M. smegmatis = assay: 45 hr MIC against M. smegmatis (NTM), Mueller Hinton broth; type: cell-based, Mycobacterium smegmatis; conditions: M. smegmatis MC^2 155, Run #1
[2] = test system: carbapenem-resistant P. aeruginosa clinical isolate CFS-1292; assay: MIC by modified CLSI broth microdilution against P. aeruginosa CFS-1292 (CAA, CAA + human serum); type: cell-based, Pseudomonas aeruginosa; conditions: for MIC (μg/mL) against CFS-1292 in 100% CAA (1st run/2nd run): 1st run or single value
Pseudomonas aeruginosa = assay: microbe, parasite or virus in culture; type: cell-based; conditions: P. aeruginosa isolates (n per peptide in table)
Enterobacter cloacae = assay: microbe, parasite or virus in culture; type: cell-based; conditions: for MIC: Enterobacter cloacae ATCC 13047, CAA supplemented with human serum
Protocol: (§1) Determination of Minimal Inhibitory Concentrations (MIC).
(§2) Additional MIC testing was performed for several peptides against the ESKAPE pathogens Escherichia coli, Enterobacter cloacae, Klebsiella pneumoniae, and Acinetobacter baumannii, in CAA supplemented with human serum (Table D).

Escherichia coli = assay: microbe, parasite or virus in culture; type: cell-based; conditions: for MIC: Escherichia coli ATCC 25922, CAA supplemented with human serum
Protocol: as §1, §2

Klebsiella pneumoniae = type: cell-based; conditions: for MIC: Klebsiella pneumoniae HM-44, CAA supplemented with human serum
Protocol: as §1, §2

Acinetobacter baumannii = assay: microbe, parasite or virus in culture; type: cell-based; conditions: for MIC: Acinetobacter baumannii ATCC BAA 747, CAA supplemented with human serum
S. maltophilia = assay: MIC against S. maltophilia isolates; type: cell-based, Stenotrophomonas maltophilia; conditions: S. maltophilia isolates (n per peptide in table)
Protocol: as §1
In addition to the results discussed above in Example 3, further testing was conducted on several Chp peptides. MIC values were determined against different species, including P. aeruginosa, K. pneumoniae, A. baumannii, E. cloacae, E. coli, and S. maltophilia, and the results are presented below in Tables 40-45, wherein n=number of isolates tested for each species and MIC is measured as μg/mL.

[3] = test system: carbapenem-resistant bacterial strains; assay: organism not typed; type: cell-based
Source text: as §1

[4] = E. cloacae isolates (n per peptide in table)
[5] = E. coli isolates (n per peptide in table)
[6] = K. pneumoniae isolates (n per peptide in table)
[7] = A. baumannii isolates (n per peptide in table)

MRRYNVNKGKSAKKFRKQVSKTKVANLRSNPMRGGWRL [Unp6]
MIC (100% CAA) [1]: 8 | 45 hr MIC (M. smegmatis): 16 µg/mL

MCKKVCKKCPKKGPKNAPKIGAFYERKTPRLKQST [CPAR39]
MIC (μg/mL) against CFS-1292 in 100% CAA (1st run/2nd run) [2]: 4 µg/mL | MIC (μg/mL) against CFS-1292 in CAA + […] human serum [2]: 1 µg/mL | MIC (μg/mL) against CFS-1292 in CAA + […] human serum ([2]; listed as CPAR39 + DTT): 4 µg/mL | MIC (μg/mL) against CFS-1292 in CAA + […] human serum ([2]; listed as CPAR39 − DTT): 64 µg/mL | MIC (100% CAA) [1]: 4 | 45 hr MIC (M. smegmatis): >128 µg/mL

MLTVWSDTPTIKRRKDMYRKRMSRKKSKKVFAKTAMKVNKRNHVKPMRGGYRI [Gkh3]
MIC (μg/mL) against CFS-1292 in 100% CAA (1st run/2nd run) [2]: 0.5 µg/mL | MIC (μg/mL) against CFS-1292 in CAA + […] human serum [2]: 1 µg/mL | MIC50 (Pseudomonas aeruginosa): 8 µg/mL | MIC100 (Pseudomonas aeruginosa): >8 µg/mL | MIC50 (Enterobacter cloacae; [4]): 4 µg/mL | MIC100 (Enterobacter cloacae; [4]): 4 µg/mL | MIC (Enterobacter cloacae): 4 µg/mL | MIC50 (Escherichia coli; [5]): 1 µg/mL | MIC100 (Escherichia coli; [5]): 4 µg/mL | MIC Range (Escherichia coli; [5]): 0.5 to 8 µg/mL | MIC (Escherichia coli): 2 µg/mL | MIC50 (Klebsiella pneumoniae; [6]): >8 µg/mL | MIC100 (Klebsiella pneumoniae; [6]): >8 µg/mL | MIC (Klebsiella pneumoniae): 4 µg/mL | MIC50 (Acinetobacter baumannii; [7]): 0.5 µg/mL | MIC100 (Acinetobacter baumannii; [7]): 1 µg/mL | MIC Range (Acinetobacter baumannii; [7]): 0.25 to 1 µg/mL | MIC (Acinetobacter baumannii): 4 µg/mL | MIC50 (S. maltophilia): 8 µg/mL | MIC100 (S. maltophilia): >8 µg/mL | MIC ([3]; carbapenem-resistant isolate PA19): 2 µg/mL | MIC ([3]; carbapenem-resistant isolate PA20): >8 µg/mL | MIC ([3]; carbapenem-resistant isolate PA21): >8 µg/mL | MIC ([3]; carbapenem-resistant isolate PA22): >8 µg/mL | MIC ([3]; carbapenem-resistant isolate PA23): 8 µg/mL | MIC ([3]; carbapenem-resistant isolate PA24): 8 µg/mL | MIC ([3]; carbapenem-resistant isolate WLC-452): 2 µg/mL | MIC (100% CAA) [1]: 0.5 | 45 hr MIC (M. smegmatis): >128 µg/mL

MAGKKMVSKGKDRQIFRKTADRTKKMNVRPLLYRGGIRL [Chp12]
MIC (μg/mL) against CFS-1292 in 100% CAA (1st run/2nd run) [2]: 8 µg/mL | MIC (Enterobacter cloacae): 32 µg/mL | MIC (Escherichia coli): 8 µg/mL | MIC (Klebsiella pneumoniae): 16 µg/mL | MIC (Acinetobacter baumannii): 1 µg/mL | MIC (100% CAA) [1]: 8 | 45 hr MIC (M. smegmatis): 64 µg/mL

MKRKPMSRKASQKTFKKNTGVQRMNHLNPRAMRGGIRL [Bdp1]
MIC (μg/mL) against CFS-1292 in 100% CAA (1st run/2nd run) [2]: 16 µg/mL | MIC (μg/mL) against CFS-1292 in CAA + […] human serum [2]: >32 µg/mL | MIC (Enterobacter cloacae): >32 µg/mL | MIC (Escherichia coli): >32 µg/mL | MIC (Klebsiella pneumoniae): >32 µg/mL | MIC (Acinetobacter baumannii): >32 µg/mL | MIC (100% CAA) [1]: 16 | 45 hr MIC (M. smegmatis): 32 µg/mL

MTKRDIEYRKALGLNPSEPLPKIVGAVTRHGATLKRPRVTALAR [SBR77]
MIC (μg/mL) against CFS-1292 in 100% CAA (1st run/2nd run) [2]: 4 µg/mL | MIC (μg/mL) against CFS-1292 in CAA + […] human serum [2]: >16 µg/mL | MIC (μg/mL) against CFS-1292 in CAA + […] human serum ([2]; listed as SBR77 (Sbr1)): 0.5 µg/mL | MIC (100% CAA) [1]: >64 | 45 hr MIC (M. smegmatis): >64 µg/mL

MAKRHKIPQRASQHSFTRHAQKVHPKNVPRLPMRGGIRL [AVQ244]
MIC (μg/mL) against CFS-1292 in 100% CAA (1st run/2nd run) [2]: 64 µg/mL | MIC (100% CAA) [1]: 64 | 45 hr MIC (M. smegmatis): 64 µg/mL
